Read-outs that look alike come from different tables or passages of the source. Bridge positions count the residues as written; N and C are the ends. Square brackets hold non-standard residues; d marks the D form. Peptide text beside a SMILES is read from it. Trp(1-Me) = Cn1cc(C[C@H](N)C(=O)O)c2ccccc21; NMeI = CC[C@H](C)[C@H](NC)C(=O)O; Sar = CNCC(=O)O
Target: T1, C3b (Homo sapiens, UniProt P01024)
T1 construct: the α’NT, MG6^α−8, anchor, and C-terminal complement (CTC) domains of the α-chain that are all shared between C3c and C3b; purchased Complement Technology (Tyler, TX, USA)
T1 sequence (P01024 23-667 limits assumed): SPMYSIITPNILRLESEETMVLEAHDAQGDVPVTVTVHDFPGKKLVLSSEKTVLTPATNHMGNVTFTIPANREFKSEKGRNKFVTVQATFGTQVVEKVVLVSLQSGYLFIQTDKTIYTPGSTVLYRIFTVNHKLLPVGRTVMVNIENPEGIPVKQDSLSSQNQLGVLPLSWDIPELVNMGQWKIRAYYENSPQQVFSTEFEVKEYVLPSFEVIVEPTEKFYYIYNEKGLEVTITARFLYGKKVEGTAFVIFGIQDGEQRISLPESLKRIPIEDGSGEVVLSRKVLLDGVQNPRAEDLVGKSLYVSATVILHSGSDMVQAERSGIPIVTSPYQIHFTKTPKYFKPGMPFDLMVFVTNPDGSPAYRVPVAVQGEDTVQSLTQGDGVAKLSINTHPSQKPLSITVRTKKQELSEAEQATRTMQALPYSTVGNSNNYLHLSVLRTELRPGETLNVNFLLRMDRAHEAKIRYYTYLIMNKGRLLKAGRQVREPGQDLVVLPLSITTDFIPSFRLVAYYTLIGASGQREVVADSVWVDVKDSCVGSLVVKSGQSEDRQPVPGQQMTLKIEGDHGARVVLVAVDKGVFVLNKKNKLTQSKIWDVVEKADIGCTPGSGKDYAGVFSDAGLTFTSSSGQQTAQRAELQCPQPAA
T1 sequence (P01024 749-1663 limits assumed): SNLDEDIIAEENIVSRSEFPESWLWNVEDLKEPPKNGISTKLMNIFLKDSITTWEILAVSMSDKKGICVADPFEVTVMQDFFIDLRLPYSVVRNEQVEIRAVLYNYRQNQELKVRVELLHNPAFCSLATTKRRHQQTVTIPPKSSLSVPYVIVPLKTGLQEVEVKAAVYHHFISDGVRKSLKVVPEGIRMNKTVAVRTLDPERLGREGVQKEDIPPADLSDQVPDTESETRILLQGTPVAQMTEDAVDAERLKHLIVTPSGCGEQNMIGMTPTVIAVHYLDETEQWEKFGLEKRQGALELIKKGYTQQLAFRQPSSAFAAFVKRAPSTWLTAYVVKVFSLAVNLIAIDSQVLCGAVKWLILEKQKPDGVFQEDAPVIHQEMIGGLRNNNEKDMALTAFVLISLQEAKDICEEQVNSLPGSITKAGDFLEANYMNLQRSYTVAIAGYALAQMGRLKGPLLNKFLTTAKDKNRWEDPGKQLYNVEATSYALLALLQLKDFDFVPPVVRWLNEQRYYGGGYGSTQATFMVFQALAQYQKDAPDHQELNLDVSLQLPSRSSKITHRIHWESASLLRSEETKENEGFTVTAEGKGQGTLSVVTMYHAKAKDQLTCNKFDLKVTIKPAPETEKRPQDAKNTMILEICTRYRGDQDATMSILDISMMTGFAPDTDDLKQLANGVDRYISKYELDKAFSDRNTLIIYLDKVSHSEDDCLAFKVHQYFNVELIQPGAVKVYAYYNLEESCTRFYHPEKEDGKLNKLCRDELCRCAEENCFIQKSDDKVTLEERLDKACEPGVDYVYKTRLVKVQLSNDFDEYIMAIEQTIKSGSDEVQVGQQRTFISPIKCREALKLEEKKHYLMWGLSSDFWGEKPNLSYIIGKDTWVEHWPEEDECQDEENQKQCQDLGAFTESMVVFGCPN
Assay: SPR kinetic binding studies on immobilized C3b
Description: All compstatin analogues were characterized concerning affinity and kinetic profiles by surface plasmon resonance (SPR) using a Biacore T200 instrument (Cytiva, Piscataway, USA). Experiments were run at 25 °C in HBST buffer (10 mM HEPES, 150 mM NaCl, 0.05% Tween-20, pH 7.4). C3b was immobilized on a carboxymethyl dextran hydrogel chip (CMD200; XanTec, Düsseldorf, Germany) using standard amine coupling in sodium acetate buffer pH 4.5 at a flow rate of 10 µl/min. Immobilization densities of 8000 and 4000 resonance units (RU) were achieved on separate flow cells. A reference flow cell was activated with the same method (NHS/EDC). All active sites were inactivated and blocked with ethanolamine. A single cycle approach at a flow rate of 30 µl/min was used for kinetic analysis by injecting five increasing concentrations of each compound (0.5–40 nM) consecutively without regeneration in-between injections. Individual injections within a cycle were 120 s long with a 60 sec dissociation phase between injections. After the highest concentration of each derivative, a dissociation period of 6,000–14,400 sec was added to ensure complete dissociation in absence of suitable regeneration method. […] Signals from the reference cell from an ensemble of buffer blank injections were subtracted to correct for buffer effects and injection artefacts. Kinetic data was processed with the Biacore T200 Software (version 3.1; Cytiva) using a single-cycle evaluation setup by global fitting each data set to a 1:1 Langmuir binding model. Association and dissociation rate constants (ka and kd, respectively) were fitted, and the equilibration constant KD was calculated based on the following equation: KD = kd/ka. Each assay was performed at least twice and in duplicate injections.

[1] = Table 1, amine-reactive immobilized C3b, 25 °C, average±SD of three independent SPR experiments, read-out: KD
[2] = pH 7.4, read-out: ka, Dataset 1
[3] = pH 7.4, read-out: ka, Dataset 2
[4] = pH 7.4, read-out: ka, Dataset 3
[5] = source data of Table 1, single SPR dataset 1, read-out: KD, Dataset 1
[6] = source data of Table 1, single SPR dataset 2, read-out: KD, Dataset 2
[7] = source data of Table 1, single SPR dataset 3, read-out: KD, Dataset 3

Compound	Kd [1] [nM]	kon (pH 7.4, read-out: ka) [M⁻¹ s⁻¹]	kon [2] [M⁻¹ s⁻¹]	kon [3] [M⁻¹ s⁻¹]	kon [4] [M⁻¹ s⁻¹]	Kd [5] [nM]	Kd [6] [nM]	Kd [7] [nM]	kd (Suppl. Fig. 7e, Cp40 analogs at position 5, three SPR experiments)	kd (Table 1, amine-reactive immobilized C3b, 25 °C, average±SD of three independent SPR experiments)	kd, Dataset 1 (source data of Table 1, single SPR dataset 1)	kd, Dataset 2 (source data of Table 1, single SPR dataset 2)	kd, Dataset 3 (source data of Table 1, single SPR dataset 3)
CC[C@H](C)[C@H](NC(=O)[C@H](N)Cc1ccc(O)cc1)C(=O)N[C@H]1CSSC[C@@H](C(=O)N(C)[C@H](C(N)=O)[C@@H](C)CC)NC(=O)[C@H](CO)NC(=O)[C@H](Cc2c[nH]cn2)NC(=O)[C@H](C)NC(=O)CN(C)C(=O)[C@H](Cc2c[nH]c3ccccc23)NC(=O)[C@H](CO)NC(=O)[C@H](CCC(N)=O)NC(=O)[C@H](Cc2cn(C)c3ccccc23)NC(=O)[C@H](C(C)C)NC1=O [Cp40 D7S/R12S] (H-[dY]ICV[Trp(1-Me)]QSW[Sar]AHSC[NMeI]-NH2; disulfide 3-13)	59.1 ± 41.3	100000	20000	120000	220000	117	34.7	25.5	–	–	–	–	–
CC[C@H](C)[C@H](NC(=O)[C@H](N)Cc1ccc(O)cc1)C(=O)N[C@H]1CSSC[C@@H](C(=O)N(C)[C@H](C(N)=O)[C@@H](C)CC)NC(=O)[C@H](CCCNC(=N)N)NC(=O)[C@H](Cc2c[nH]cn2)NC(=O)[C@H](C)NC(=O)CN(C)C(=O)[C@H](Cc2c[nH]c3ccccc23)NC(=O)[C@H](CC(=O)O)NC(=O)[C@H](CCC(N)=O)NC(=O)[C@H](Cc2cn(CC)c3ccccc23)NC(=O)[C@H](C(C)C)NC1=O [1EtW]	–	700000 ± 300000	–	–	–	–	–	–	1.2 ± 0.3 10-3 s-1	–	–	–	–
CC[C@H](C)[C@H](NC(=O)[C@H](N)Cc1ccc(O)cc1)C(=O)N[C@H]1CSSC[C@@H](C(N)=O)NC(=O)[C@H](CCCNC(=N)N)NC(=O)[C@H](Cc2c[nH]cn2)NC(=O)[C@H](C)NC(=O)CN(C)C(=O)[C@H](Cc2c[nH]c3ccccc23)NC(=O)[C@H](CC(=O)O)NC(=O)[C@H](CCC(N)=O)NC(=O)[C@H](Cc2cn(C)c3ccccc23)NC(=O)[C@H](C(C)C)NC1=O [Cp40 ΔmI14] (H-[dY]ICV[Trp(1-Me)]QDW[Sar]AHRC-NH2; disulfide 3-13)	–	1.5e+06 ± 200000	1.41e+06	1.28e+06	1.8e+06	–	–	–	–	–	–	–	–
CC[C@H](C)[C@H](NC(=O)[C@H](N)Cc1ccc(O)cc1)C(=O)N[C@H]1CSSC[C@@H](C(=O)N(C)[C@H](C(N)=O)[C@@H](C)CC)NC(=O)[C@H](CCCNC(=N)N)NC(=O)[C@H](Cc2c[nH]cn2)NC(=O)[C@H](C)NC(=O)CN(C)C(=O)[C@H](Cc2c[nH]c3ccccc23)NC(=O)[C@H](CO)NC(=O)[C@H](CCC(N)=O)NC(=O)[C@H](Cc2cn(C)c3ccccc23)NC(=O)[C@H](C(C)C)NC1=O [Cp40 D7S] (H-[dY]ICV[Trp(1-Me)]QSW[Sar]AHRC[NMeI]-NH2; disulfide 3-13)	5.6 ± 1.3	100000	80000	50000	170000	4.85	7.48	4.45	–	–	–	–	–
CC[C@H](C)[C@H](NC(=O)[C@@H](C)N)C(=O)N[C@H]1CSSC[C@@H](C(=O)N(C)[C@H](C(N)=O)[C@@H](C)CC)NC(=O)[C@H](CCCNC(=N)N)NC(=O)[C@H](Cc2c[nH]cn2)NC(=O)[C@H](C)NC(=O)CN(C)C(=O)[C@H](Cc2c[nH]c3ccccc23)NC(=O)[C@H](CC(=O)O)NC(=O)[C@H](CCC(N)=O)NC(=O)[C@H](Cc2cn(C)c3ccccc23)NC(=O)[C@H](C(C)C)NC1=O [Cp40 y1a]	2.9 ± 0.6	800000 ± 100000	840000	920000	650000	2.19	2.99	3.63	–	2.3 ± 0.4 10^−3 s^−1	1.85 10-3 s-1	2.77 10-3 s-1	2.36 10-3 s-1
CC[C@H](C)[C@H](NC(=O)[C@H](N)Cc1ccc(O)cc1)C(=O)N[C@H]1CSSC[C@@H](C(=O)N(C)[C@H](C(N)=O)[C@@H](C)CC)NC(=O)[C@H](CO)NC(=O)[C@H](Cc2c[nH]cn2)NC(=O)[C@H](C)NC(=O)CN(C)C(=O)[C@H](Cc2c[nH]c3ccccc23)NC(=O)[C@H](CC(=O)O)NC(=O)[C@H](CCC(N)=O)NC(=O)[C@H](Cc2cn(C)c3ccccc23)NC(=O)[C@H](C(C)C)NC1=O [Cp40 R12S] (H-[dY]ICV[Trp(1-Me)]QDW[Sar]AHSC[NMeI]-NH2; disulfide 3-13)	9.9 ± 0.5	200000	140000	180000	220000	10.2	10.3	9.22	–	–	–	–	–
